Experimental findings from US20200376146A1, “NANOBIOLOGIC COMPOSITIONS FOR INHIBITING TRAINED IMMUNITY” (ICAHN SCHOOL OF MEDICINE, priority 2017, published 2020) are described below.

Molecules are shown by their SMILES.

Data set [1] can be described thus: Toxicity in transplant recipients (BUN, serum creatinine, histopathology). It is filed as in vivo, mice. Particulars: regimens giving 100% allograft survival for 30 days.
The next data set concerns heart allograft. Description: Cardiac allograft survival (BALB/c hearts into C57BL/6 recipients). The conditions noted are these: oral, 5 mg/kg every day for 15 days. It is filed as in vivo, mice.
Data set [2] can be described thus: Hydrolysis of (pro-)drugs in nanobiologics. The data set is classed as physicochemical. Particulars: 4° C. in PBS. On the procedure:
(Pro-)drug recovery and hydrolysis were determined using the following procedure: an aliquot (200 μL) of the particle solution was dried under vacuum, acetonitrile (600 μL) was added and the suspension was sonicated for 20 minutes. The suspension was centrifuged to precipitate any solids and the remaining solution was analyzed using HPLC; except for the malonate derivatives which were analyzed using SFC-MS, and Dimethylmalonate which was analyzed by GC-MS.

As to `CO[C@H]1C[C@@H]2CC[C@@H](C)[C@@](O)(O2)C(=O)C(=O)N2CCCC[C@H]2C(=O)O[C@H]([C@H](C)C[C@@H]2CC[C@@H](O)[C@H](OC)C2)CC(=O)[C@H](C)/C=C(\C)[C@@H](O)[C@@H](OC)C(=O)[C@H](C)C[C@H](C)/C=C/C=C/C=C/1C` [Rapamycin, rapamycin], the “blood urea nitrogen (BUN) and serum creatinine” value in data set [1] is “kidney toxicity parameters show statistical differences between oral rapamycin and mTORi-HDL”. Besides, the “allograft survival for 30 days” value with heart allograft is 100%.

In the case of `CCCCCCCCCCCCCCCCCC(=O)O[C@@H]1CC[C@@H](C[C@@H](C)[C@@H]2CC(=O)[C@H](C)/C=C(\C)[C@@H](O)[C@@H](OC)C(=O)[C@H](C)C[C@H](C)/C=C/C=C/C=C(\C)[C@@H](OC)C[C@@H]3CC[C@@H](C)[C@@](O)(O3)C(=O)C(=O)N3CCCC[C@H]3C(=O)O2)C[C@H]1OC` [Cis-Rapamycin, Rapamycin-C18], in data set [2], the “hydrolysis of the (pro-)drug in the nanobiologic over time” value is given as “hydrolysis was observed”.
